Tests used:
[1] = test system: (LPS)-stimulated human monocyte-derived DCs; test: CXCL10 induction in LPS-stimulated dendritic cells; type: cell-based; details: for dose-dependent response of CXCL10 induction: dose response analysis, same assay setup; for CXCL10 induction: supernatants of low dose LPS-stimulated dendritic cells, vs other peptides and negative control peptide
Procedure: Studies were performed to identify target peptides that induced CXCL10 production. Target peptides identified from human microbiomes from patients that responded to anti-PD-1 therapy were each synthesized and tested for TNF-α, CXCL10, IL6, and INF-γ induction. Fifteen peptides with high CXCL10 induction were identified for additional testing, indicated with asterisks in the figure (FIG. 1). […] Peptide sequences and characteristics can be found in Tables 4-7.
Peptides that bound to specific immune cells (1% of the screened peptides) were then evaluated for activity in cell-based assays using isolated primary human T cells, DCs, and macrophages. Immune-driven inhibition of tumor growth relies on DC-mediated recruitment of effector T cells, mainly via CXCL9 and CXCL10. […] Peptides inducing robust CXCL10 secretion (LPS)-stimulated human monocyte-derived DCs from multiple donors, with a mean induction of >2-fold of CXCL10 over OVA323 339 control peptide in DCs were selected for dose response analysis (n=36). […] To confirm cross species activity, 10 of the 15 peptides with EC50<10 μM were screened in vitro for CXCL10 induction in mouse bone marrow DCs.

CXCR4 = target: T1, CXCR4 (Homo sapiens, UniProt P61073); test: SelectScreen agonist/antagonist assay, chemokine receptor expressing U2OS cells; type: cell-based
T1 construct: host or cells: U2OS
T1 sequence (P61073 whole entry): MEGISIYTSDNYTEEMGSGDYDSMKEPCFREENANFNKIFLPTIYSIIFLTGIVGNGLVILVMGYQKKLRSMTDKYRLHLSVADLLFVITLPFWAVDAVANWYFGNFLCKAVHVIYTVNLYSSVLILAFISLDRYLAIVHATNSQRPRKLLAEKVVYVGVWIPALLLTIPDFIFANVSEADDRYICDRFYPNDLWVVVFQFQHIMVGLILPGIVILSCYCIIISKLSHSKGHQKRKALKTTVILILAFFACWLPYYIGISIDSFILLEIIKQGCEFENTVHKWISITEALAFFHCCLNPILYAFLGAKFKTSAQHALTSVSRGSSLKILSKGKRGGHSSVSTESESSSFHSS

RENCA cells [2] = test: RENCA murine adenocarcinoma model, anti-tumor activity; type: in vivo, BALB/c female mice; details: for tumor volume: 2.5 mg/kg peritumorally daily; for survival: initial dosing
Procedure: (§1) To determine anti-tumor activity of SG-3-00802 in vivo, the RENCA murine adenocarcinoma model was used. It is a syngeneic, standardized experimental model of metastatic RCC. Briefly, BALB/c female mice were inoculated subcutaneously with RENCA cells. Established tumors were treated daily with 2.5 mg/kg SG-3-00802 peritumorally, alone or in combination with intraperitoneal administration of 10 mg/kg anti-PD-1 antibody.
(§2) Additional studies were performed to test survival and tumor volume responses to a re-challenge event. In one study, mice were allocated into dosing groups when tumors reached ˜100 mm^3. During the initial dosing study, time 0 was the first day of seven days of dosing. […] Re-implantation was completed on day 39 after dosing completion. Treated mice were tumor free for >20 days before being re-challenge. […] Tumor volume and survival was monitored as previously described. In the re-challenge experiment, time 0 is day 10 after re-challenge dosing.
as §1, with “SG-3-05021” for “SG-3-00802”, “used.” for “used. It is a syngeneic, standardized experimental model of metastatic RCC.”

RENCA cells [3] = test: RENCA re-challenge study; type: in vivo, Balb/c mice
Procedure: as §2

CXCR3 = target: T2, CXCR3 (Homo sapiens, UniProt P49682); test: Positive allosteric modulator assay method 2 (PAM2), CXCR3-bla U2OS; type: cell-based; parameters: TEV protease site; Gal4-VP16 transcription factor ('Ga14-VP16' [sic]); Tango cell line; host or cells: Tango GPCR-bla U2OS; details: varying CXCL11, fixed peptide concentration
T2 sequence (P49682 1-368): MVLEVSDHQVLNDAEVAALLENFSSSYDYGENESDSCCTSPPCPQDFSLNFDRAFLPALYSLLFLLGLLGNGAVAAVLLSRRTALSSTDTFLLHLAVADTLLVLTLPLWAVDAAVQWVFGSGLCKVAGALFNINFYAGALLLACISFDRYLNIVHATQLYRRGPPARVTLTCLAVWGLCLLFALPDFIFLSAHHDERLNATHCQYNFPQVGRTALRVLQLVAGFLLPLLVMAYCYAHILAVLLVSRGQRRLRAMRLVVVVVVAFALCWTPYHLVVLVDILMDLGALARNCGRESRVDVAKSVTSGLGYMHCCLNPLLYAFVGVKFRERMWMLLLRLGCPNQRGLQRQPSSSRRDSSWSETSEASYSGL
Text: Tango™ CXCR3-bla U2OS cells contain the human chemokine (C-X-C motif) receptor 3 linked to a TEV protease site and a Ga14-VP16 transcription factor stably integrated into the Tango™ GPCR-bla U2OS cell line. This parental cell line stably expresses a beta-arrestin/TEV protease fusion protein and the beta-lactamase reporter gene under the control of a UAS response element. The Tango™ CXCR3-bla U2OS cells have been functionally validated for a response to I-TAC (CXCL11).
Positive allosteric modulation was confirmed with an additional test method using a dose response setting for CXCL11. In positive allosteric modulator assay method 2 (PAM2), cells were diluted in Assay Media to an appropriate cell density, and were added to the assay plate. CXCR3-bla U2OS were stimulated with varying concentrations of CXCL11 ligand and a pre-determined fixed concentration of either SG-3-00802 or SG-3-06683 and incubated for 30 minutes. Ligand (CXCL9, CXCL10, or CXCL11) was added at increasing concentrations to wells containing the test compound.

[4] = in combination with 10 mg/kg i.p. anti-PD-1

| Sequence | dose-dependent response of CXCL10 induction [1] | CXCL10 induction [1] | SelectScreen Agonist Mode (CXCR4) | SelectScreen Antagonist Mode (CXCR4) | tumor volume (RENCA cells [2]; alone, vs PBS) | tumor volume (RENCA cells [2]; [4]) | survival (RENCA cells [2]; in combination with anti-PD-1) | survival (RENCA cells [2]; peptide alone) | # of animals with complete tumor regression out of total animals per group (primary study) (RENCA cells [2]; primary study) | rejection of newly implanted tumors (RENCA cells [3]; peptide alone) | percent of mice surviving after re-challenge (RENCA cells [3]; previously dosed in combination with anti-PD-1) | percent of mice surviving after re-challenge (RENCA cells [3]; previously dosed with peptide alone) | # of animals without tumor progression out of re-challenged animals per group (re-challenge study) (RENCA cells [3]; re-challenge study) | rejection of newly implanted tumors (RENCA cells [3]; with anti-PD-1 antibody combinatorial treatment) | activity of CXCL11 on the CXCR3 receptor (PAM2) (CXCR3) |
| --- | --- | --- | --- | --- | --- | --- | --- | --- | --- | --- | --- | --- | --- | --- | --- |
| MKVRPSVKPMCEKCKIIRRKGRVMVICENPKHKQRQG [SG-3-00802] | robust dose-dependent response | high CXCL10 inducers | no agonistic activity and No | moderate antagonistic activity and Yes | robust decrease in tumor volume | robust decrease in tumor volume | increased survival | increased survival | 2/12 | rejected newly implanted tumors | increased percent of mice surviving | increased percent of mice surviving | 2/2 | rejected newly implanted tumors | enhanced the activity of the endogenous ligand CXCL11 |
| LGKTDWIEKYFKVKKEKIDKMQRFLQG (peptide for immunotherapy; SG-3-05021) | robust dose-dependent response | high CXCL10 inducers | no agonistic activity and No | – | decrease in tumor volume | decrease in tumor volume | survived a longer time | survived a longer time | – | – | – | – | – | – | – |
